From patent US9518026B2, “5-aminopyrazole-4-carboxamide inhibitors of CDPK1 from T. gondii and C. parvum” (UNIVERSITY OF WASHINGTON THROUGH ITS CENTER FOR …, priority 2013, dated 2016)
Like-named read-outs stand apart in the source and are kept apart here.

Columns and labels:
[1] = target: CpCDPK1 (Cryptosporidium parvum (strain Iowa II), UniProt A3FQ16); assay: biochemical; settings: Table 1; KinaseGlo, Syntide 2 peptide substrate; read-out: CpCDPK1 IC50
[2] = target: TgCDPK1 (Toxoplasma gondii, UniProt Q9BJF5); assay: biochemical; settings: read-out: TgCDPK1 IC50
TgCDPK1, sequence (Q9BJF5 1-507): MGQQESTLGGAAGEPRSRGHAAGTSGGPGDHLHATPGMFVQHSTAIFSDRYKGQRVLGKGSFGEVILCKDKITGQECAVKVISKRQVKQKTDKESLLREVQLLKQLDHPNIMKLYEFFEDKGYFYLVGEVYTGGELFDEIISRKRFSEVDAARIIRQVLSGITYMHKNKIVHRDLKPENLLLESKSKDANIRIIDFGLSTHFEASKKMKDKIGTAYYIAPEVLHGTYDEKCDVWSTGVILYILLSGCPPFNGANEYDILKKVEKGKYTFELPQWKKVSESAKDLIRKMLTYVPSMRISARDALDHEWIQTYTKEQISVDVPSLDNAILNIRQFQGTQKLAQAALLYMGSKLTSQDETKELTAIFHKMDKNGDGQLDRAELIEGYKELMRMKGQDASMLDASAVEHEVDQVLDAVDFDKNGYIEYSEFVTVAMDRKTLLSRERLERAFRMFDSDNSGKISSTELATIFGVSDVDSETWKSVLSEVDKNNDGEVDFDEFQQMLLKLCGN

[3] = Table 1, KinaseGlo, Syntide 2 peptide substrate

CpCDPK1, sequence (A3FQ16 1-538): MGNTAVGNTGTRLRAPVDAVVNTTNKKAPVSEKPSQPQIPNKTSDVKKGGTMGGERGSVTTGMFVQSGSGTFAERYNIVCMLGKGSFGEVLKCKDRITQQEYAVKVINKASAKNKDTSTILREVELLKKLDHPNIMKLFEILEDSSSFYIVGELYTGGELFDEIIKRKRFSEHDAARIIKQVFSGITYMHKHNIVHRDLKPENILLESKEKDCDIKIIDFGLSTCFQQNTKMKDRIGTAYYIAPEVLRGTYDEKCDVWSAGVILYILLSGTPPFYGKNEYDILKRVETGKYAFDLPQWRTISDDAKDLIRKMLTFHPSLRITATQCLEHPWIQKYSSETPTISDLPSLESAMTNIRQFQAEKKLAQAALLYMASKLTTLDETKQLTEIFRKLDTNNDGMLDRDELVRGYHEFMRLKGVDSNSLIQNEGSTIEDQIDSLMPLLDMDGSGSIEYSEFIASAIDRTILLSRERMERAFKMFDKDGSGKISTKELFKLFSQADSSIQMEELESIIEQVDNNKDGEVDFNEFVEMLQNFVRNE

SMILES | IC50 [1] [nM] | IC50 [2, 3] [nM] | IC50 [2] [nM]
CC(C)(C)n1nc(-c2ccc3cc(O)ccc3c2)c(C(N)=O)c1N [Compound 24, 5-amino-1-(tert-butyl)-3-(6-hydroxynaphthalen-2-yl)-1H-pyrazole-4-carboxamide] | 17 | – | –
CCOc1ccc2cc(-c3n[nH]c(N)c3C(N)=O)cnc2c1 [Compound 1593, 5-amino-3-(7-ethoxyquinolin-3-yl)-1H-pyrazole-4-carboxamide] | 67 | 164 | –
Cn1c(N)nc2cc(-c3nn(C(C)(C)C)c(N)c3C(N)=O)ccc21 [Compound 33, 5-amino-3-(2-amino-1-methyl-1H-benzo[d]imidazol-5-yl)-1-(tert-butyl)-1H-pyrazole-4-carboxamide] | – | – | 730
Cn1ncc2cc(-c3nn(C(C)(C)C)c(N)c3C(N)=O)ccc21 [Compound 30, 5-amino-1-(tert-butyl)-3-(1-methyl-1H-indazol-5-yl)-1H-pyrazole-4-carboxamide] | 150 | – | 32
CCOc1ccc2cc(-c3nn(CCOC)c(N)c3C(=O)NCCOC)cnc2c1 [Compound 1595, 5-amino-3-(7-ethoxyquinolin-3-yl)-N,1-bis(2-methoxyethyl)-1H-pyrazole-4-carboxamide] | 398 | 723 | –
NC(=O)c1c(-c2ccc3ccccc3c2)nn(CC2CCNCC2)c1N [Compound 6, 5-amino-3-(naphthalen-2-yl)-1-(piperidin-4-ylmethyl)-1H-pyrazole-4-carboxamide] | 64 | – | 35
NC(=O)c1c(-c2ccc3ccccc3c2)nn(C2CCCCC2)c1N [Compound 17, 5-amino-1-cyclohexyl-3-(naphthalen-2-yl)-1H-pyrazole-4-carboxamide] | 16 | – | 11
CCOc1ccc2cc(-c3nn(C4(C)CCCCC4)c(N)c3C(N)=O)cnc2c1 [Compound 1640, 5-amino-3-(7-ethoxyquinolin-3-yl)-1-(1-methylcyclohexyl)-1H-pyrazole-4-carboxamide] | 6 | 9 | –
CC(C)n1nc(-c2ccc3ccccc3c2)c(C(N)=O)c1N [Compound 13, 5-amino-1-isopropyl-3-(naphthalen-2-yl)-1H-pyrazole-4-carboxamide] | 7 | – | –
CC(C)(C)n1nc(-c2cnc3cc(C(F)(F)F)ccc3c2)c(C(N)=O)c1N [Compound 1555, 5-amino-1-tert-butyl-3-(7-(trifluoromethyl)quinolin-3-yl)-1H-pyrazole-4-carboxamide] | 222 | – | –
COCCOc1ccc2cc(-c3nn(C(C)(C)C)c(N)c3C(N)=O)cnc2c1 [Compound 1570, 5-amino-1-(tert-butyl)-3-(7-(2-methoxyethoxy)quinolin-3-yl)-1H-pyrazole-4-carboxamide] | 255 | 258 | –
Nc1ncnc2c1c(-c1ccc3ccccc3c1)nn2CC1CCNCC1 [Compound 7, 3-(naphthalen-2-yl)-1-(piperidin-4-ylmethyl)-1H-pyrazolo[3,4-d]pyrimidin-4-amine, reference compound] | 1 | – | –
CCOc1ccc2cc(-c3nn(C(C)C(C)C)c(N)c3C(N)=O)cnc2c1 (centres unmarked) [Compound 1628, 5-amino-3-(7-ethoxyquinolin-3-yl)-1-(3-methylbutan-2-yl)-1H-pyrazole-4-carboxamide] | 5 | – | –
CCOc1ccc2cc(-c3nn(C(C)C4CC4)c(N)c3C(N)=O)cnc2c1 (centres unmarked) [Compound 1631, 5-amino-1-(1-cyclopropylethyl)-3-(7-ethoxyquinolin-3-yl)-1H-pyrazole-4-carboxamide] | 5 | 10 | –
CC(C)(C)COc1ccc2cc(-c3nn(C(C)(C)C)c(N)c3C(N)=O)cnc2c1 [Compound 1587, 5-amino-1-(tert-butyl)-3-(7-(neopentyloxy)quinolin-3-yl)-1H-pyrazole-4-carboxamide] | 490 | 175 | –
CCOc1ccc2cc(-c3nn(CC(F)(F)F)c(N)c3C(N)=O)cnc2c1 [Compound 1575, 5-amino-3-(7-ethoxyquinolin-3-yl)-1-(2,2,2-trifluoroethyl)-1H-pyrazole-4-carboxamide] | 5 | – | –
CCOc1ccc2cc(-c3nn(C4CCOC4)c(N)c3C(N)=O)ccc2n1 (centres unmarked) [Compound 1634, 5-amino-3-(2-ethoxyquinolin-6-yl)-1-(tetrahydrofuran-3-yl)-1H-pyrazole-4-carboxamide] | 3 | – | –
CCOc1ccc2cc(-c3nn(C(C)(C)C)c4ncnc(N)c34)ccc2c1 [Compound 4, 1-tert-butyl-3-(6-ethoxynaphthalen-2-yl)-1H-pyrazolo[3,4-d]pyrimidin-4-amine, reference compound] | 43 | – | –
CC(C)(C)n1nc(-c2ccc3oc(=O)ccc3c2)c(C(N)=O)c1N [Compound 34, 5-amino-1-(tert-butyl)-3-(2-oxo-2H-chromen-6-yl)-1H-pyrazole-4-carboxamide] | 200 | – | 32
CCOc1ccc2cc(-c3nn(CC4CCCCC4)c(N)c3C(N)=O)cnc2c1 [Compound 1574, 5-amino-1-(cyclohexylmethyl)-3-(7-ethoxyquinolin-3-yl)-1H-pyrazole-4-carboxamide] | 30 | – | –

SMILES | IC50 [1] [nM] | IC50 [2, 3] [nM] | IC50 [2] [nM]
CCn1nc(-c2ccc3ccccc3c2)c(C(N)=O)c1N [Compound 12, 5-amino-1-ethyl-3-(naphthalen-2-yl)-1H-pyrazole-4-carboxamide] | 11 | – | 8
CCOc1ccc2cc(-c3nn(CC4CCN(C)CC4)c(N)c3C(N)=O)ccc2c1 [Compound 8, 5-amino-3-(6-ethoxynaphthalen-2-yl)-1-((1-methylpiperidin-4-yl)methyl)-1H-pyrazole-4-carboxamide] | 9 | – | 11
CCOc1ccc2cc(-c3nn(C(C)C(C)(C)O)c(N)c3C(N)=O)ccc2n1 (centres unmarked) [Compound 1636, 5-amino-3-(2-ethoxyquinolin-6-yl)-1-(3-hydroxy-3-methylbutan-2-yl)-1H-pyrazole-4-carboxamide] | 18 | 58 | –
CCOc1ccc2cc(-c3nn(CCOC)c(N)c3C(N)=O)cnc2c1 [Compound 1594, 5-amino-3-(7-ethoxyquinolin-3-yl)-1-(2-methoxyethyl)-1H-pyrazole-4-carboxamide] | 172 | 321 | –
CCOc1ccc2cc(-c3nn(C(C)C(C)O)c(N)c3C(N)=O)cnc2c1 (centres unmarked) [Compound 1611, 5-amino-3-(7-ethoxyquinolin-3-yl)-1-(3-hydroxybutan-2-yl)-1H-pyrazole-4-carboxamide] | 6 | 19 | –
NC(=O)c1c(-c2ccc3ccccc3c2)nn(CC2CCCCC2)c1N [Compound 16, 5-amino-1-(cyclohexylmethyl)-3-(naphthalen-2-yl)-1H-pyrazole-4-carboxamide] | 150 | – | 59
Cn1c(=O)[nH]c2cc(-c3nn(C(C)(C)C)c(N)c3C(N)=O)ccc21 [Compound 31, 5-amino-1-(tert-butyl)-3-(1-methyl-2-oxo-2,3-dihydro-1H-benzo[d]imidazol-5-yl)-1H-pyrazole-4-carboxamide] | > 3000 | 640 | –
CC(C)Cn1nc(-c2ccc3ccccc3c2)c(C(N)=O)c1N [Compound 14, 5-amino-1-isobutyl-3-(naphthalen-2-yl)-1H-pyrazole-4-carboxamide] | 16 | – | –
COc1ccc2cc(-c3nn(CC4CCN(C)CC4)c(N)c3C(N)=O)ccc2c1 [Compound 10, 5-amino-3-(6-methoxynaphthalen-2-yl)-1-((1-methylpiperidin-4-yl)methyl)-1H-pyrazole-4-carboxamide] | 14 | 35 | –
CC(C)(C)n1nc(-c2cnc3cc(OC(F)(F)F)ccc3c2)c(C(N)=O)c1N [Compound 1565, 5-amino-1-tert-butyl-3-(7-(trifluoromethoxy)quinolin-3-yl)-1H-pyrazole-4-carboxamide] | 38 | 31 | –
CCOc1ccc2nc(-c3nn(C(C)(C)C)c(N)c3C(N)=O)ccc2c1 [Compound 36, 5-amino-1-(tert-butyl)-3-(6-ethoxyquinolin-2-yl)-1H-pyrazole-4-carboxamide] | 390 | – | 350
CCOc1ccc2cc(-c3nn(CC(C)(C)O)c(N)c3C(N)=O)cnc2c1 [Compound 1641, 5-amino-3-(7-ethoxyquinolin-3-yl)-1-(2-hydroxy-2-methylpropyl)-1H-pyrazole-4-carboxamide] | 21 | 41 | –
CCOc1ccc2cc(-c3nn(C(C)C(C)(C)CO)c(N)c3C(N)=O)cnc2c1 (centres unmarked) [Compound 1637, 5-amino-3-(7-ethoxyquinolin-3-yl)-1-(4-hydroxy-3,3-dimethylbutan-2-yl)-1H-pyrazole-4-carboxamide] | 4 | 12 | –
CCOc1ccc2ncc(-c3nn(C(C)(C)C)c(N)c3C(N)=O)cc2c1 [Compound 1654, 5-amino-1-(tert-butyl)-3-(6-ethoxyquinolin-3-yl)-1H-pyrazole-4-carboxamide] | > 2000 | > 2000 | –
Cc1oc2ccccc2c1-c1nn(C(C)(C)C)c(N)c1C(N)=O [Compound 27, 5-amino-1-(tert-butyl)-3-(2-methylbenzofuran-3-yl)-1H-pyrazole-4-carboxamide] | – | – | 710
CCc1ccc2cc(-c3nn(C(C)(C)C)c(N)c3C(N)=O)cnc2c1 [Compound 1592, 5-amino-1-(tert-butyl)-3-(7-ethylquinolin-3-yl)-1H-pyrazole-4-carboxamide] | 85 | – | –
CC(C)(C)n1nc(-c2cnc3cc(OC4CC4)ccc3c2)c(C(N)=O)c1N [Compound 1586, 5-amino-1-(tert-butyl)-3-(7-cyclopropoxyquinolin-3-yl)-1H-pyrazole-4-carboxamide] | 5 | – | –
Cn1nc(N)c2ccc(-c3nn(C(C)(C)C)cc3C(N)=O)cc21 [Compound 29, 3-(3-amino-1-methyl-1H-indazol-6-yl)-1-(tert-butyl)-1H-pyrazole-4-carboxamide] | – | 17 | –
CC(C)(C)n1nc(-c2cnc3cc(OCC4CC4)ccc3c2)c(C(N)=O)c1N [Compound 1585, 5-amino-1-(tert-butyl)-3-(7-(cyclopropylmethoxy)quinolin-3-yl)-1H-pyrazole-4-carboxamide] | 9 | – | –
